The record followed here is patent US8779141B2, “Viral inhibitors” (Gilead Sciences, Inc., priority 2002, dated 2014).

Converted amounts (≈) assume the structure as drawn. Read-outs that look alike come from different tables or passages of the source.

Series [1] concerns BVDV-1 (strain PE515). The series can be described thus: Anti-BVDV assay, virus-induced cytopathic effect in MDBK cells (MTS). The series is classed as cell-based, Bovine Viral Diarrhea Virus. The following applies: reduction of virus induced cytopathic effect in MDBK cells by 50%. (Cytopathic effects are the visible damage that an infection or toxin causes in cultured cells.)
Series [2] deals with MDBK cells. The series can be described thus: Cytostatic effect on exponentially growing MDBK cells (MTS). The series is classed as cell-based, Bovine. The following applies: for MTC: Table 10, mean toxic concentration, reduces growth of exponentially growing MDBK cells by 50%. In short, it runs like this: (§1)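 Exponentially growing MDBK cells were seeded at 5000 cells/well in MEM with 10% fetal calf serum and L-glutamine and exposed to compound. Growth was measured by MTS read-out after a further 3-day incubation.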

Series [3] relates to BVDV (strain NADL). The series is classed as cell-based, Bovine Viral Diarrhea Virus. The settings on record: GPJN22-resistant BVDV (F224S). How it is done: Wild type BVDV (strain NADL) was twice plaque purified on MDBK cells. The entire coding region of the genome of this virus was sequenced. This plaque purified and sequenced virus was then cultured in the presence of increasing drug concentrations of compound (GPJN22). Following 12 passages, the virus was at least 25 fold resistant to compound GPJN22. The resistant virus preparation was again plaque purified. The entire coding region of the genome of this virus was sequenced. A mutation F224S in the RNA dependent RNA polymerase gene of the virus was detected in 4 out of 4 clones of this virus; no other mutations were detected in the resistant viruses. The GPJN22-resistant virus was cross-resistant with VP32947 (see Table 8). VP32947 is an earlier reported selective inhibitor of BVDV replication [Baginski S G et al., Proc Natl Acad Sci USA. 2000 Jul. 5; 97(14):7981-6]. In VP32947-resistant BVDV, a similar mutation was identified as being responsible for the drug-resistance. To confirm that the F224S mutation is indeed responsible for the resistant phenotype, the mutation was reintroduced by site-directed mutagenesis in an full-length infectious clone of the BVDV (strain NADL) [Vassilev et al., J. Virol. 1997 January; 71(1):471-8.].

The subject of series [4] is HCV replicon in Huh-5-2 cells. The series can be described thus: Anti-HCV replicon assay, luciferase activity in Huh-5-2 cells. The series is classed as cell-based. The following applies: Hepatitis C virus, Table 11, inhibition of luciferase activity in the replicon system by 50%. How it is done: (§2) Cells were seeded at a density of 7000 cells per well in 96 well View Plate™ (Packard) in medium containing the same components as described above, except for G418. Cells were allowed to adhere and proliferate for 24 hr. At that time, culture medium was removed and serial dilutions of the test compounds were added in culture medium lacking G418. Interferon alfa 2a (500 IU) was included as a positive control. Plates were further incubated at 37° C. and 5% CO2 for 72 hours. Replication of the HCV replicon in Huh-5 cells results in luciferase activity in the cells. Luciferase activity is measured by adding 50 μl of 1× Glo-lysis buffer (Promega) for 15 minutes followed by 50 ul of the Steady-Glo Luciferase assay reagent (Promega). Luciferase activity is measured with a luminometer and the signal in each individual well is expressed as a percentage of the untreated cultures. […] Instead the density of the culture is measured by means of the MTS method (Promega).

Series [5] in a line: Proliferation of exponentially growing Huh-5-2 cells (MTS). The series is classed as cell-based. The settings on record: human, exponentially growing Huh-5-2 cells (HCV replicon cell line); Table 11; inhibition of proliferation of exponentially growing Huh-5-2 cells by 50%. How it is done:
as §2

Series [6] in a line: Cytostatic effect on exponentially growing MDBK cells (MTS). The series is classed as cell-based, Bovine. The settings on record: bovine; Table 9; reduction of growth of exponentially growing MDBK cells by 50%; mean of 2-5 determinations. In short, it runs like this: as §1
The test system of series [7] is Coxsackie B3 virus (strain Nancy). The series can be described thus: Anti-coxsackie virus assay, cytopathic effect in Vero cells (MTS). The series is classed as cell-based. The settings on record: Enterovirus B, Table 13, reduction of virus (CBV-3 Nancy strain)-induced cytopathic effect in Vero cells by 50%. How it is done: (§3) Madin-Darbey Bovine Kidney (MDBK) cells were maintained in Dulbecco's modified Eagle medium (DMEM) supplemented with BVDV-free 5% fetal calf serum (DMEME-FCS) at 37° C. in a humidified, 5% CO2 atmosphere. BVDV-1 (strain PE515) was used to assess the antiviral activity in MDBK cells. Vero cells were maintained in the same way as MDBK cells. Vero cells were infected with Coxsackie B3 virus (strain Nancy).
(§4) Ninety-six-well cell culture plates were seeded with Vero cells in DMEM medium containing 10 fetal calf serum (FCS) so that cells reached confluency 24-48 hr later. Medium was then removed and serial 5-fold dilutions of the test compounds were added in a total volume of 100 ul, after which the virus inoculum (100 μl) was added to each well. […] Uninfected cells and cells receiving virus without compound were included in each asay plate. After 5 days, the medium was removed and 90 μl of DMEM-FCS and 10 μl of MTS/PMS solution (Promega) was added to each well. Following a 2 hr incubation period at 37° C., the optical density of the wells was read at 498 nm in a microplate reader. The 50% effective concentration (EC50) value was defined as the concentration of compound that protects 50% of the cell monolayer from virus-induced cytopathic effect.

Series [8] relates to Vero cells. The series can be described thus: Metabolism of confluent Vero cells (MTS). The series is classed as cell-based. The following applies: Table 13; reduction of metabolism of confluent Vero cells by 50%, MTS method. How it is done: as §3, §4
On the technique in general: Tetrazolium assays rely on reduction of a dye to a coloured formazan, in cell work by metabolically active cells.

[9] abbreviates: Bovine viral diarrhea virus isolates and strains, Table 10, read-out: EC50.

On to `CCCN(CCC)CCSc1nnc2c(n1)[nH]c1ccccc12` [VP32947, 3-[((2-dipropylamino)ethyl)thio]-5H-1,2,4-triazino[5,6-b]indole, reference compound], for which, in series [1] (Table 9, BVDV strain PE515, mean of 2-5 determinations), the EC50 – broadly, the concentration needed to bring the measured effect to its halfway point – amounted to 0.003 µg/mL (≈ 0.00911 µM). In addition, the CC50 (in general, the concentration giving 50% cytotoxicity) in [2] (Table 9, reduction of growth of exponentially growing MDBK cells by 50%, mean of 2-5 determinations) came out at 47 µg/mL (≈ 143 µM). Besides, in [3], the “cross-resistance of the GPJN22-resistant virus” value was “cross-resistant”.
With `Fc1ccccc1-c1nc2ccn(Cc3ccc(Cl)cc3)cc-2n1` [GPJN-112, 5-[(4-Chlorophenyl)methyl]-2-(2-fluorophenyl)-5H-imidazo[4,5-c]pyridine], the EC50 in [1] (setting [9]) came out at 0.0049 µg/mL (≈ 0.0145 µM); in [4], 0.29 µg/mL (≈ 0.859 µM). Also, the “MTC” value in series [2] stood at 20 µg/mL. Also, the CC50 at 72 hours in series [5] was more than 17 µg/mL.
Turning to `Fc1cccc(F)c1Cn1ccc2nc(-c3c(F)cccc3F)nc-2c1` [GPRTI-8, 2-(2,6-Difluorophenyl)-5-[(2,6-difluorophenyl)methyl]-5H-imidazo[4,5-c]pyridine], the melting point (as a rule, the temperature, or range, at which the solid turns liquid) was in the range of 195 to 197 °C. In [1] (Bovine viral diarrhea virus isolates and strains, Table 9, BVDV strain PE515, mean of 2-5 determinations, read-out: EC50), the EC50 was 0.137 µg/mL (≈ 0.383 µM). In addition, the CC50 at 3 days in [6] was more than 79 µg/mL. Further, the EC50 in [7] was 12.2 µg/mL (≈ 34.1 µM). For the same compound, the “TC50” value in [8] was more than 100 µg/mL.
`Fc1ccccc1-c1nc2ccn(Cc3ccc(I)cc3)cc-2n1` [GPJN-113, 2-(2-Fluorophenyl)-5-[(4-iodophenyl)methyl]-5H-imidazo[4,5-c]pyridine]: the results for the EC50 in [1] (setting [9]) and in series [4] were 0.0031 µg/mL (≈ 0.00722 µM) and 0.17 µg/mL (≈ 0.396 µM), respectively. For the same compound, the “MTC” value in [2] turned out to be 20 µg/mL. The compound further showed a CC50 at 72 hours in [5] of 14 µg/mL (≈ 32.6 µM).
